{
  "source": "patent US10968214B2",
  "about": "“KRas G12C inhibitors” (Eli Lilly and Company, priority 2018, dated 2021)",
  "key": {"KRas G12C": {"molecular_target": "KRas G12C (Homo sapiens, UniProt P01116, G12C)", "sequence (P01116 1-188 isoform P01116-2 G12C)": "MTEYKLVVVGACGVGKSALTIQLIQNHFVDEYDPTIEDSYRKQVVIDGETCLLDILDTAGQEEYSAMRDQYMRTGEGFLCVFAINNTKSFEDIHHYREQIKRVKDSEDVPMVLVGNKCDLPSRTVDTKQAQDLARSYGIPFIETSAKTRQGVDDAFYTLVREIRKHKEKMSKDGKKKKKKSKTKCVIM", "experiment": "KRas G12C Probe Occupancy TR-FRET Assay", "format": "binding", "conditions": "60 min incubation of inhibitor with KRas G12C; read-out: TR-FRET 60 min", "experimental": "Inhibitors are tested in dose response format from 10 mM stocks in 100% DMSO. The Labycyte Echo® 555 is used to dilute and transfer 100 nL per well containing a 10 point, 2.8-fold serial dilution to an assay plate. […] The signal ratio (em at 665/em at 615) is converted to percent inhibition using the following equation: % Inhibition=100−[(Test Compound Signal−Median Minimum Signal)/(Median Maximum Signal−Median Minimum Signal)×100]."}, "[1]": {"test_system": "phosphorylation of p-ERK1/2 in H358 cells", "experiment": "H358 Cellular Phospho-ERK AlphaLISA", "format": "cell-based, Human", "conditions": "read-out: pERK", "experimental": "This assay is used to measure the ability of test compounds to inhibit the phosphorylation of p-ERK1/2, a downstream effector of KRas in Human lung cancer cells H358 (ATCC CRL-5807). Briefly, the AlphaLISA® SureFire® Ultra™ p-ERK 1/2 (Thr202/Tyr204) assay is a sandwich immunoassay for quantitative detection of phospho-ERK 1/2 (phosphorylated on Thr202/Tyr204 in ERK1, or Thr185/Tyr187 in ERK2) in cellular lysates using Alpha Technology (Perkin Elmer Cat #ALSU-PERK-A50K).\nH358 cells are plated at 40K cells per well in 100 μL media (RPMI 1640, GIBCO Cat #22400-071) containing 10% FBS (GIBCO Cat #: 10082-147) in a 96 well plate (Costar #3596) and are incubated overnight in humid trays at 37° C., 5% CO2. The next morning, 10 μL of serially-diluted (3-fold) test compounds (50 μM top concentration) and 10 uL of controls (Maximum signal wells: 5% DMSO and Minimum signal wells: 2 μM of N-(3-{3-cyclopropyl-5-[(2-fluoro-4-iodophenyl)amino]-6,8-dimethyl-2,4,7-trioxo-3,4,6,7-tetrahydropyrido[4,3-D]pyrimidin-1(2H)-yl}phenyl)acetamide (trametinib, as a positive control) are added to the cell plate and incubated for 2 hr in humid trays at 37° C./5% CO2. Lysis Buffer is prepared at RT containing a protease and phosphatase inhibitor cocktail. Culture medium is removed by inverting and shaking the cell plate in the sink and then blotting onto a paper towel. Lysis buffer is added to the cell plate (50 μL per well) and the plate is incubated at RT for 10 min on a shaker. For p-ERK detection, acceptor beads are diluted into a suspension mixture with buffer. Using a Starlett liquid handler, 5 μL of acceptor beads and 2 μL of cell lysate are transferred as a single-step in-tip dilution to a 384 well assay plate. The assay plate is sealed with foil and is incubated at RT for 2 hrs. Donor beads are diluted into a suspension mixture with buffer. Using the Starlet, 5 μL of donor beads are added to the assay plate that is then sealed, wrapped with foil. The plate is incubated at RT for 2 hrs in the dark. The assay plate is then read on an EnVision™ Plate Reader (Perkin Elmer) using a luminescence program.\nThe signal is converted to percent inhibition using the following equation: % Inhibition=100−[(Test Compound Signal−Median Minimum Signal)/(Median Maximum Signal−Median Min Signal)×100]. The Maximum signal is a control well without inhibitor."}, "[2]": {"molecular_target": "T1, constitutive RAS GTPAse activity in H358 cells (Homo sapiens, UniProt P01116, G12C)", "T1 construct": "host or cells: H358 human lung cancer cells", "T1 sequence (P01116 1-188 isoform P01116-2 G12C)": "as above", "experiment": "H358 Cellular Active RAS GTPase ELISA", "format": "cell-based", "conditions": "2 hr, read-out: RAS-GTP", "description": "This assay is used to measure the ability of test compounds to inhibit constitutive RAS GTPAse activity in human lung cancer cells H358 (ATCC CRL-5807). The RAS GTPase ELISA kit (Active Motif Cat #52097) contains a 96-well plate pre-coated with glutathione in order to capture a kit-supplied GST-Raf-RBD protein. Activated RAS (GTP-bound) in cell extracts specifically bind to the Raf-RBD. Bound RAS is detected with a primary antibody that recognizes human KRas. A secondary antibody conjugated with HRP recognizes the primary antibody and a development solution provides a chemiluminescent readout.\nH358 cells are plated at 80,000 cells/well in 90 μL serum free media (RPMI 1640, GIBCO) and incubated overnight at 37° C./5% CO2. The next morning, 10 μL of serially-diluted (3-fold) test compounds (500 μM top concentration) and 10 μL of controls (Maximum signal wells: 5% DMSO and Minimum signal wells: 500 μM LSN3429410 as an inhibitor) are added to the cell plate and incubated for 2 hr at 37° C./5% CO2. Complete Lysis/Binding Buffer is prepared containing Protease Inhibitor cocktail and GST-Raf-RBD and stored on ice. One hour before cell plate incubation is completed, 50 μL of GST-Raf-RBD is diluted in lysis/binding buffer, and buffer is added to the ELISA assay plate and which is incubated for 1 hour at 4° C. with gently rocking. After 2 hr, the cells are washed with 100 μL ice-cold PBS and lysed with 100 μL lysis/binding buffer. The cell plate is shaken for 10 min at RT. The cell plate is then centrifuged at 1500 rpm for 10 min at RT. During this time, 1× Wash Buffer is prepared at RT and then is used to wash (3×100 μL) the GST-Raf-RBD coated assay plate. After washing, 50 μL of cell lysate is added to the GST-Raf-RBD coated assay plate and incubated for 1 hour at RT with gentle shaking. During this incubation period, 1× Antibody Binding Buffer is prepared and brought to RT. The assay plate is washed 3×100 μL with 1× Wash Buffer and then 50 μL of Primary Antibody (diluted 1:500 in 1× Antibody Binding buffer) is added. The plate is incubated for 1 hour at RT. The assay plate is washed 3×100 μl with 1× Wash Buffer and then 50 μL of Secondary Antibody (diluted 1:5000 in 1× Antibody Binding buffer) is added and incubated for 1 hour at RT. The assay plate is washed 4×100 μL with 1× Wash buffer and then 50 μL of chemiluminescent working solution is added at RT. The assay plate is then read on an EnVision™ Plate Reader (Perkin Elmer) using a luminescence program.\nThe signal is converted to percent inhibition using the following equation: % Inhibition=100−[(Test Compound Signal−Median Minimum Signal)/(Median Maximum Signal−Median Minimum Signal)×100]. The Maximum signal is a control well without inhibitor."}, "EL3187 (PDX)": {"test_system": "EL3187 (PDX)", "experiment": "Anti-tumor growth activity, EL3187 lung PDX", "format": "in vivo", "conditions": "EL3187 Lung PDX; Afatinib 25 mg/kg QDx28"}},
  "note": "Read-outs that look alike come from different tables or passages of the source.",
  "data": [
    {"smiles": "C=CC(=O)N1CCN(c2ncnc3c(F)c(-c4cccc5sc(N)nc45)c(Cl)cc23)CC1", "note": "[Example 5, 1-{4-[7-(2-Amino-1,3-benzothiazol-4-yl)-6-chloro-8-fluoroquinazolin-4-yl]piperazin-1-yl}prop-2-en-1-one]", "values": [
      {"measurement": "IC50", "setting": "KRas G12C", "result": 27.8, "unit": "nM"},
      {"measurement": "IC50", "setting": "[1]; Homo sapiens, NCI-H358, 2 h", "result": 9.73, "unit": "nM"},
      {"measurement": "IC50", "setting": "[2]", "result": 104, "unit": "nM"}
    ]},
    {"smiles": "C=CC(=O)N1CCN(c2ncnc3c(F)c(-c4c(F)cc(F)c5sc(N)nc45)c(Cl)cc23)CC1", "note": "(single isomer, unassigned) [Example 6b, 1-{4-[7-(2-Amino-5,7-difluoro-1,3-benzothiazol-4-yl)-6-chloro-8-fluoroquinazolin-4-yl]piperazin-1-yl}prop-2-en-1-one]", "values": [
      {"measurement": "IC50", "setting": "KRas G12C", "result": 449, "unit": "nM"},
      {"measurement": "IC50", "setting": "[1]; 2 hr", "result": 256, "unit": "nM"},
      {"measurement": "IC50", "setting": "[2]", "result": 743, "unit": "nM"}
    ]},
    {"smiles": "C=CC(=O)N1CCN(c2ncnc3c(F)c(-c4cc(O)cc5ccccc45)c(Cl)cc23)CC1", "note": "[reference compound]", "values": [
      {"measurement": "IC50", "setting": "KRas G12C", "result": 45.2, "unit": "nM"},
      {"measurement": "IC50", "setting": "[1]; Homo sapiens, NCI-H358, 2 h", "result": 204, "unit": "nM"},
      {"measurement": "IC50", "setting": "[2]", "result": 392, "unit": "nM"}
    ]},
    {"smiles": "CN(C)C/C=C/C(=O)Nc1cc2c(Nc3ccc(F)c(Cl)c3)ncnc2cc1O[C@H]1CCOC1", "note": "[Afatinib, afatinib, reference compound]", "values": [
      {"measurement": "In Vivo Anti-Tumor Activities", "setting": "EL3187 (PDX)", "result": 17.1}
    ]},
    {"smiles": "C=CC(=O)N1CCN(c2ncnc3cc(-c4ccc(F)c5sc(N)nc45)c(Cl)cc23)CC1", "note": "[Example 4, 1-{4-[7-(2-Amino-7-fluoro-1,3-benzothiazol-4-yl)-6-chloroquinazolin-4-yl]piperazin-1-yl}prop-2-en-1-one]", "values": [
      {"measurement": "IC50", "setting": "KRas G12C", "result": 25, "unit": "nM"},
      {"measurement": "IC50", "setting": "[1]; Homo sapiens, NCI-H358, 2 h", "result": 27.1, "unit": "nM"},
      {"measurement": "IC50", "setting": "[2]", "result": 234, "unit": "nM"}
    ]},
    {"smiles": "C=CC(=O)N1CCN(c2ncnc3c(Cl)c(-c4ccc(F)c5sc(N)nc45)c(Cl)cc23)CC1", "note": "[Example 2, 1-{4-[7-(2-Amino-7-fluoro-1,3-benzothiazol-4-yl)-6,8-dichloroquinazolin-4-yl]piperazin-1-yl}prop-2-en-1-one]", "values": [
      {"measurement": "IC50", "setting": "KRas G12C", "result": 47.6, "unit": "nM"},
      {"measurement": "IC50", "setting": "[1]; Homo sapiens, NCI-H358, 2 h", "result": 19.4, "unit": "nM"},
      {"measurement": "IC50", "setting": "[2]", "result": 148, "unit": "nM"}
    ]},
    {"smiles": "C=CC(=O)N1CCN(c2ncnc3c(F)c(-c4cc(F)c(F)c5sc(N)nc45)c(Cl)cc23)CC1", "note": "[Example 3, 1-{4-[7-(2-Amino-6,7-difluoro-1,3-benzothiazol-4-yl)-6-chloro-8-fluoroquinazolin-4-yl]piperazin-1-yl}prop-2-en-1-one]", "values": [
      {"measurement": "IC50", "setting": "KRas G12C", "result": 20.9, "unit": "nM"},
      {"measurement": "IC50", "setting": "[1]; Homo sapiens, NCI-H358, 2 h", "result": 15.3, "unit": "nM"},
      {"measurement": "IC50", "setting": "[2]", "result": 166, "unit": "nM"}
    ]},
    {"smiles": "C=CC(=O)N1CCN(c2ncnc3c(F)c(-c4c(O)cccc4F)c(Cl)cc23)CC1", "note": "[reference compound]", "values": [
      {"measurement": "IC50", "setting": "[1]; Homo sapiens, NCI-H358, 2 h", "result": 1600, "unit": "nM"},
      {"measurement": "IC50", "setting": "[2]", "result": 3780, "unit": "nM"}
    ]},
    {"smiles": "C=CC(=O)N1CCN(c2ncnc3c(F)c(-c4c(F)cc(F)c5sc(N)nc45)c(Cl)cc23)CC1", "note": "(single isomer, unassigned) [Example 6a, 1-{4-[7-(2-Amino-5,7-difluoro-1,3-benzothiazol-4-yl)-6-chloro-8-fluoroquinazolin-4-yl]piperazin-1-yl}prop-2-en-1-one]", "values": [
      {"measurement": "IC50", "setting": "KRas G12C", "result": "< 18.9", "unit": "nM"},
      {"measurement": "IC50", "setting": "[1]; 2 hr", "result": 3.94, "unit": "nM"},
      {"measurement": "IC50", "setting": "[2]", "result": 11.7, "unit": "nM"}
    ]},
    {"smiles": "C=CC(=O)N1CCN(c2ncnc3cc(-c4ccc5oc(N)nc5c4)c(Cl)cc23)CC1", "note": "[reference compound]", "values": [
      {"measurement": "IC50", "setting": "KRas G12C", "result": 82200, "unit": "nM"},
      {"measurement": "IC50", "setting": "[1]; Homo sapiens, NCI-H358, 2 h", "result": "> 5000", "unit": "nM"},
      {"measurement": "IC50", "setting": "[2]", "result": "> 50000", "unit": "nM"}
    ]}
  ]
}
